Measurements as given in the supplement of paper PMC11208160.

Assay: recombinant UMI read abundance after kanamycin selection (control-corrected) (log10(CPM+1)); higher = more efficient recombination; extreme values may be limits of the assay; sequences stand for … in AGTGCAGAGAAAATCGGCCAGTTTTCTCTGCCTGCAGTCCGCATGCCGTGGGACCCCTTGGGTTCTAACCTGTTGCCTAGATTTATGCAGCGGACTGCCTTTCTCCCAAAGTGATAAACCGG…AGGTTGGTTTCACT; site = the 11-nt donor
Protocol: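 Pooled E. coli donor-specificity screen for the IS621 bridge recombinase. Each library member carries a reprogrammed 11-nt donor and a full-length LE bridge RNA expressed in cis from the natural promoter, with a paired donor-binding loop (8-nt LDG + 4-nt RDG) and a target-binding loop fixed to T5. It is co-electroporated with a T5 target plasmid; recombinase is induced with 0.07 mM IPTG and recombinants are selected on kanamycin. UMIs are counted as CPM, averaged over two biological replicates and corrected by the unselected control. Molecule = full bridge RNA written as DNA, built from the T5 scaffold: LDG = donor specificity nt 1-8, RDG = reverse complement of nt 8-11.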
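Note: IS621 bridge recombinase in Escherichia coli cells against a fixed T5 target plasmid.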

| Sequence | recombinant UMI read abundance (log10) |
| --- | --- |
| ACCCTAGCATGGACCGGTTTTCCCGGTAATCCGTATTTGTT (site AGCCTAGCTAA) | 0.00512 |
| ACCCTAGCATGGACCGGTTTTCCCGGTAATCCGTATTTGTT (site ATCCTAGCTAA) | 0.016 |
| ACCCTGTCATGGACCGGTTTTCCCGGTAATCCGTATTTGGG (site ACCCTGTCTCC) | 0 |
| ACCGAGCCATGGACCGGTTTTCCCGGTAATCCGTATTTGCG (site ACCGAGCCTCG) | 0.0257 |
| ACCGTAGCATGGACCGGTTTTCCCGGTAATCCGTATTTGTG (site ACCGTAGCTCA) | 0.533 |
| ACCGTATCATGGACCGGTTTTCCCGGTAATCCGTATTTGCA (site ACAGTATCTTG) | 2.58 |
| ACCGTATCATGGACCGGTTTTCCCGGTAATCCGTATTTGCA (site ACCGTATCTTG) | 2.45 |
| ACCGTATCATGGACCGGTTTTCCCGGTAATCCGTATTTGCA (site ACGGTATCTTG) | 0.962 |
| ACCGTATCATGGACCGGTTTTCCCGGTAATCCGTATTTGCA (site ACTGTATCTTG) | 0.874 |
| ACCGTGGCATGGACCGGTTTTCCCGGTAATCCGTATTTGGA (site ACCGTGGCTTC) | 0.325 |
| ACCGTTACATGGACCGGTTTTCCCGGTAATCCGTATTTGTC (site ACCGTTACTGA) | 1.49 |
| ACCTAAACATGGACCGGTTTTCCCGGTAATCCGTATTTGGG (site ACCTAAACTCC) | 0.256 |
| ACCTAAACATGGACCGGTTTTCCCGGTAATCCGTATTTGGG (site ACCTACACTCC) | 0.0196 |
| ACCTAAACATGGACCGGTTTTCCCGGTAATCCGTATTTGGG (site ACCTAGACTCC) | 0.0149 |
| ACCTAAACATGGACCGGTTTTCCCGGTAATCCGTATTTGGG (site ACCTATACTCC) | 0.0143 |
| ACCTACACATGGACCGGTTTTCCCGGTAATCCGTATTTGGG (site ACCTAAACTCC) | 0.00329 |
| ACCTACACATGGACCGGTTTTCCCGGTAATCCGTATTTGGG (site ACCTACACTCC) | 0.0331 |
| ACCTACACATGGACCGGTTTTCCCGGTAATCCGTATTTGGG (site ACCTAGACTCC) | 0.00747 |
| ACCTACACATGGACCGGTTTTCCCGGTAATCCGTATTTGGG (site ACCTATACTCC) | 0.0213 |
| ACCTAGACATGGACCGGTTTTCCCGGTAATCCGTATTTGCG (site ACCTAGACTCA) | 0.0199 |
| ACCTAGACATGGACCGGTTTTCCCGGTAATCCGTATTTGCG (site ACCTAGACTCC) | 0.0218 |
| ACCTAGACATGGACCGGTTTTCCCGGTAATCCGTATTTGCG (site ACCTAGACTCG) | 1.58 |
| ACCTAGACATGGACCGGTTTTCCCGGTAATCCGTATTTGCG (site ACCTAGACTCT) | 0.262 |
| ACCTAGACATGGACCGGTTTTCCCGGTAATCCGTATTTGGC (site ACCTAGACTAC) | 0.532 |

| Sequence | recombinant UMI read abundance (log10) |
| --- | --- |
| ACCTAGACATGGACCGGTTTTCCCGGTAATCCGTATTTGGC (site ACCTAGACTCC) | 0.0128 |
| ACCTAGACATGGACCGGTTTTCCCGGTAATCCGTATTTGGC (site ACCTAGACTGC) | 1.82 |
| ACCTAGACATGGACCGGTTTTCCCGGTAATCCGTATTTGGC (site ACCTAGACTTC) | 0.00402 |
| ACCTAGACATGGACCGGTTTTCCCGGTAATCCGTATTTGTG (site ACCTAGACTCA) | 0.799 |
| ACCTAGACATGGACCGGTTTTCCCGGTAATCCGTATTTGTG (site ACCTAGACTCC) | 0.114 |
| ACCTAGACATGGACCGGTTTTCCCGGTAATCCGTATTTGTG (site ACCTAGACTCG) | 0.469 |
| ACCTAGACATGGACCGGTTTTCCCGGTAATCCGTATTTGTG (site ACCTAGACTCT) | 0.22 |
| ACCTAGCCATGGACCGGTTTTCCCGGTAATCCGTATTTGGG (site ACCTAGACTCC) | 0.00935 |
| ACCTAGCCATGGACCGGTTTTCCCGGTAATCCGTATTTGGG (site ACCTAGCCTCC) | 0.00989 |
| ACCTAGCCATGGACCGGTTTTCCCGGTAATCCGTATTTGGG (site ACCTAGGCTCC) | 0.0311 |
| ACCTAGCCATGGACCGGTTTTCCCGGTAATCCGTATTTGGG (site ACCTAGTCTCC) | 0.0502 |
| ACCTATACATGGACCGGTTTTCCCGGTAATCCGTATTTGGG (site ACCTAAACTCC) | 0.00642 |
| ACCTATACATGGACCGGTTTTCCCGGTAATCCGTATTTGGG (site ACCTACACTCC) | 0.0606 |
| ACCTATACATGGACCGGTTTTCCCGGTAATCCGTATTTGGG (site ACCTAGACTCC) | 0.0071 |
| ACCTATACATGGACCGGTTTTCCCGGTAATCCGTATTTGGG (site ACCTATACTCC) | 0.0144 |
| ACCTCATCATGGACCGGTTTTCCCGGTAATCCGTATTTGGT (site ACCTCATCTAC) | 0.128 |
| ACCTCCGCATGGACCGGTTTTCCCGGTAATCCGTATTTGAG (site ACCTCCGCTCT) | 0.147 |
| ACCTCTCCATGGACCGGTTTTCCCGGTAATCCGTATTTGCA (site ACCTCTCCTTG) | 0.367 |
| ACCTGGACATGGACCGGTTTTCCCGGTAATCCGTATTTGAG (site ACCTGGACTCT) | 1.41 |
| ACCTTTCCATGGACCGGTTTTCCCGGTAATCCGTATTTGGT (site ACCTTTCCTAC) | 0 |
| ACGAAAACATGGACCGGTTTTCCCGGTAATCCGTATTTGCT (site ACGAAAACTAG) | 1.81 |
| ACGAAAACATGGACCGGTTTTCCCGGTAATCCGTATTTGCT (site CCGAAAACTAG) | 0 |
| ACGAAAACATGGACCGGTTTTCCCGGTAATCCGTATTTGCT (site GCGAAAACTAG) | 0.581 |
| ACGAAAACATGGACCGGTTTTCCCGGTAATCCGTATTTGCT (site TCGAAAACTAG) | 0 |

| Sequence | recombinant UMI read abundance (log10) |
| --- | --- |
| ACGAATCCATGGACCGGTTTTCCCGGTAATCCGTATTTGTT (site ACGAATCCTAA) | 1.32 |
| ACGAATCCATGGACCGGTTTTCCCGGTAATCCGTATTTGTT (site CGGAATCCTAA) | 0 |
| ACGACCACATGGACCGGTTTTCCCGGTAATCCGTATTTGTT (site ACGACCACTAA) | 1.29 |
| ACGACTACATGGACCGGTTTTCCCGGTAATCCGTATTTGAC (site AAGACTACTGT) | 1.19 |
| ACGACTACATGGACCGGTTTTCCCGGTAATCCGTATTTGAC (site ACGACTACTGT) | 2.45 |
| ACGACTACATGGACCGGTTTTCCCGGTAATCCGTATTTGAC (site AGGACTACTGT) | 0.613 |
| ACGACTACATGGACCGGTTTTCCCGGTAATCCGTATTTGAC (site ATGACTACTGT) | 1.69 |
| ACGAGGCCATGGACCGGTTTTCCCGGTAATCCGTATTTGCC (site ACGAGGCCTGG) | 0.486 |
| ACGAGTCCATGGACCGGTTTTCCCGGTAATCCGTATTTGGG (site ACGAGTCCTCC) | 0.00727 |
| ACGAGTGCATGGACCGGTTTTCCCGGTAATCCGTATTTGGT (site ACAAGTGCTAC) | 2.22 |
| ACGAGTGCATGGACCGGTTTTCCCGGTAATCCGTATTTGGT (site ACCAGTGCTAC) | 0.837 |
| ACGAGTGCATGGACCGGTTTTCCCGGTAATCCGTATTTGGT (site ACGAGTGCTAC) | 2.31 |
| ACGAGTGCATGGACCGGTTTTCCCGGTAATCCGTATTTGGT (site ACTAGTGCTAC) | 1.22 |
| ACGCAATCATGGACCGGTTTTCCCGGTAATCCGTATTTGAT (site ACGCAATCTAT) | 2.55 |
| ACGCACGCATGGACCGGTTTTCCCGGTAATCCGTATTTGCA (site ACGCACGCTTG) | 2.71 |
| ACGCCTACATGGACCGGTTTTCCCGGTAATCCGTATTTGAG (site ACGCCTACTCT) | 0.69 |
| ACGCGCACATGGACCGGTTTTCCCGGTAATCCGTATTTGTT (site ACGCGCACTAA) | 1.61 |
| ACGCGTCCATGGACCGGTTTTCCCGGTAATCCGTATTTGAC (site ACGCGTCCTGT) | 1.55 |
| ACGGAACCATGGACCGGTTTTCCCGGTAATCCGTATTTGAG (site ACGGAACCTCT) | 0 |
| ACGGAATCATGGACCGGTTTTCCCGGTAATCCGTATTTGTC (site ACGGAATCTGA) | 1.95 |
| ACGGATTCATGGACCGGTTTTCCCGGTAATCCGTATTTGCG (site ACGGATTCTCG) | 2.66 |
| ACGTAGACATGGACCGGTTTTCCCGGTAATCCGTATTTGGG (site ACATAGACTCC) | 0.351 |
| ACGTAGACATGGACCGGTTTTCCCGGTAATCCGTATTTGGG (site ACCTAGACTCC) | 0.0219 |
| ACGTAGACATGGACCGGTTTTCCCGGTAATCCGTATTTGGG (site ACGTAGACTCC) | 0.4 |
